Data from patent US11384142B2, “Combination therapy for the treatment of ovarian cancer” (Hoffmann-La Roche Inc., priority 2012, dated 2022).

Tested on: platinum-resistant ovarian cancer (epithelial ovarian, fallopian tube or primary peritoneal cancer)
Assay: AURELIA Phase III trial, efficacy (PFS by RECIST, ORR)
Assay type: in vivo, human
Conditions: for PFS Events, % / PFS Median, mo / ORR, %: by chemotherapy cohort; for ORR, %: overall response rate (RECIST and/or CA-125)
Description: The AURELIA trial evaluated the efficacy and safety of bevacizumab in combination with chemotherapy for platinum-resistant ovarian cancer. This study was designed as a prospective, open-label, randomised, two-arm Phase III evaluation of bevacizumab plus chemotherapy versus chemotherapy alone. To be eligible, patients must have ovarian cancer that progressed within 6 months of previous platinum-based therapy. Paclitaxel, topotecan or pegylated liposomal doxorubicin (PLD) was selected as chemotherapeutic combination partners since they are commonly used for treatment of platinum-resistant disease. By adding bevacizumab to chemotherapy, the AURELIA trial aimed to improve PFS for this group of patients who have limited therapeutic options and face a particularly poor prognosis. The primary objective was to compare progression-free survival (PFS) of patients randomised to selected chemotherapy only or to selected chemotherapy plus bevacizumab.
Study Design—This trial consisted of two (2) treatment arms: chemotherapy-alone (Arm 1) and chemotherapy plus bevacizumab (Arm 2). Patients were randomly assigned (1:1) to either arm, see FIG. 1.
Eligible patients received one of the following chemotherapies on a 4-week cycle at the discretion of the investigator: • a. Paclitaxel 80 mg/m^2 as a 1-hour i.v. infusion on days 1, 8, 15 and 22 q4w. • b. Topotecan 4 mg/m^2 as a 30 minute i.v. infusion on days 1, 8 and 15 q4w. Alternatively, a 1.25 mg/m^2 dose can be administered over 30 minutes on days 1-5 every three weeks. • c. Pegylated liposomal doxorubicin 40 mg/m^2 as a 1 mg/min i.v. infusion on day 1 only, q4w. After cycle 1, the drug can be delivered as a 1 h infusion.
The chemotherapy was selected from one of those described in Arm 1 at the discretion of the investigator. The chosen chemotherapy was initially combined with bevacizumab 10 mg/kg i.v. every two weeks (or 15 mg/kg every three weeks if used in combination with topotecan 1.25 mg/m^2 on days 1-5 of a every three weeks schedule). The initial bevacizumab infusion was over 90 minutes, with subsequent infusions over 60 minutes and then 30 minutes, as tolerated. Bevacizumab was administered before the chemotherapy at the first cycle and then administered prior or after the chemotherapy at subsequent cycles. In case chemotherapy was completed before diagnosis of progressive disease, patients continued to receive bevacizumab as either: (a) 10 mg/kg i.v. every two weeks; or (b) 15 mg/kg every three weeks if topotecan was selected and administered at a dose of 1.25 mg/m^2 on days 1-5 of a every three weeks schedule. After disease progression, patients received standard of care treatment.
Analyses of PFS and ORR was based on tumour assessments (based on RECIST criteria) using cross sectional imaging (preferably by CT or MRI in case of contrast allergy) of the pelvis and abdomen and (by X-ray or preferably by CT-scan) of the chest. The same assessment technique was used throughout the study to evaluate a particular lesion.
Tumour assessments were performed at baseline then every 8 weeks (every 9 weeks for patients treated with 1.25 mg/m^2 topotecan on days 1-5 of a every three weeks cycle). Responses were confirmed by a second CT scan performed not earlier than 4 weeks after the criteria for response were first met.
Progressive serial elevation of serum CA-125 were used to determine CA-125 response and biological progression-free interval (PFIbio). Overall survival was measured from the date of randomisation to the date of death from any cause.
Eligible patients had ovarian cancer (measurable by RECIST 1.0 or assessable) that had progressed ≤6 mo after ≥4 cycles of platinum-based therapy. Patients with refractory ovarian cancer, history of bowel obstruction or >2 prior anticancer regimens were ineligible. […]

| Molecule | PFS Events, % | PFS Median, mo | ORR, % | overall response rate (ORR) by RECIST, CA-125 or both (FIG. 3) (bevacizumab added to chemotherapy vs chemotherapy alone) |
| --- | --- | --- | --- | --- |
| CC[C@@]1(O)C(=O)OCc2c1cc1n(c2=O)Cc2cc3c(CN(C)C)c(O)ccc3nc2-1 [TOP CT, topotecan] | 89% | 2.1 mo | 3.3% |  |
| CC(=O)O[C@H]1C(=O)[C@@]2(C)[C@H]([C@H](OC(=O)c3ccccc3)[C@]3(O)C[C@H](OC(=O)[C@H](O)[C@@H](NC(=O)c4ccccc4)c4ccccc4)C(C)=C1C3(C)C)[C@]1(OC(C)=O)CO[C@@H]1C[C@@H]2O [PAC CT, paclitaxel] | 89% | 3.9 mo | 28.8% |  |
| bevacizumab (antibody, V domains shown, amino acid sequence of humanized antibody variable heavy chain; amino acid sequence of humanized antibody variable light chain, recombinant humanized anti-VEGF monoclonal antibody) VH: EVQLVESGGGLVQPGGSLRLSCAASGYTFTNYGMNWVRQAPGKGLEWVGWINTYTGEPTYAADFKRRFTFSLDTSKSTAYLQMNSLRAEDTAVYYCAKYPHYYGSSHWYFDVWGQGTLVTVSS VL: DIQMTQSPSSLSASVGDRVTITCSASQDISNYLNWYQQKPGKAPKVLIYFTSSLHSGVPSRFSGSGSGTDFTLTISSLQPEDFATYYCQQYSTVPWTFGQGTKVEIKR |  |  |  | increased the overall response rate (ORR) |
